The text below walks through data of patent publication US20250195496A1, “AVPR1A BLOCKADE TO REDUCE SOCIAL ISOLATION-INDUCED ANXIETY IN FEMALES” (THE TRUSTEES OF COLUMBIA UNIVERSITY IN THE CITY OF NEW YORK, priority 2022, published 2025).

“Also recorded” adds a separate entry of the source. Bridge positions count the residues as written; N and C are the ends. Ends that are not written are not given here.

Test [1] relates to WT mice. Kind of test: Marble burying assay after i.p. antagonist injection. As to conditions: 2 mg/kg. Format: in vivo, mouse. The procedure: Chronic social Isolation: Mice were singly housed at 5 weeks of age for 7 weeks in standard cages. Control groups included mice isolated at 8 weeks of age for 2 weeks, or at 8 weeks of age for 7 weeks. An additional control group included mice socially isolated at 8 weeks of age for 7 weeks and regrouped at 15 weeks for 3 weeks.
All behavioral assays were performed after lights out (7 pm).
Marble burying: Standard cages were filled with fresh bedding to a depth of 2.5 in and 15 marbles were evenly spaced across the bedding. […] At the end of the assay, the number of marbles buried was estimated visually. A marble was considered buried if at least ¾ of its surface was covered by the bedding.
Peripheral antagonist injections: Injections of SRX246 (AVPR1A antagonist, 2 mg/kg, i.p.), SR49059 (AVPR1A antagonist, 2 mg/kg, i.p.), SSR149415 (AVPR1B antagonist, 2 mg/kg, i.p.), d(CH2)5Tyr(Me)-[Orn8]-vasotocin (Oxytocin receptor antagonist, 2 mg/kg, i.p.), or 1% DMSO (Sigma Aldrich, i.p.) were performed in WT adults.

The subject of test [2] is AVPR1A^CeA neurons. Description: Chemogenetic activation of AVPR1A^CeA neurons by CNO (cFos smFISH). Format: in vivo, mouse. As to conditions: Avpr1a-Cre mice injected with the DREADD-Gq virus; single injection 1.5 mg/kg, i.p. The text has this: (A) Heat map for the expression of the 300 top genes at […], 7, 13 and 22 weeks of age (n=3). […] (D) Vgat and AVPR1A expression detected with smFISH in a coronal section of the CeA at bregma-1.34 mm. (E) Quantification of AVPR1A^CeA neurons. (F) AVPR1A-Cre::tdTomato reporter expression in a coronal section of the CeA at bregma-1.34 mm. (G-L) Chemogenetic activation of AVPR1A^CeA neurons. (G) Schematic of bilateral injections of AAV-DIO-DREADD-Gq-mCherry (closed circles) vs. AAV-DIO-mCherry controls (open circles) in the CeA of Avpr1a-Cre adult mice. (H) Expression of the viral mCherry reporter in the CeA. High-magnification image showing Avpr1a and cFos expression detected with smFISH 1 h after CNO injections in mice injected with control (lower panel) and DREADD-Gq-mCherry (upper panel) AAVs. (I-L) Effects of CNO injections on marble burying (I), time spent in the open arms of the EPM (J), time spent in the center of the open field (K), and distance traveled in the open field (L) in mice injected with control and DREADD-Gq AAVs (n=6-9). Data are presented as means+/−SEM in E.
We utilized a chemogenetic approach to overcome this technical issue that prevented direct comparisons of males and females. […]

Test [3] concerns central AVPR1A circuits. Kind of test: Food intake following amygdala injection of AVP. Format: in vivo, mouse.
Test [4] concerns male rats. As to conditions: males; AVP delivered into the CeA (Hernandez et al., 2016; Hernandez-Perez et al., 2018); cited from earlier work.
Test [5] has as its system WT and Avpr1a-/- females. Description: Marble burying after bilateral intra-CeA AVP injection. As to conditions: 1 ng AVP bilateral. Format: in vivo, mouse. As to the method: For cannulations, ophthalmic ointment and analgesics were administered (buprenorphine, 0.1 mg/kg or buprenorphine Ethiqa XR, 3.25 mg/kg, and carprofen, 5 mg/kg, subcutaneous). Two cannulas (Model C317GS, Plastics One) were placed by drilling holes at the following coordinates: +/−2.4 mm lateral, −1.4 mm anteroposterior and −4.6 mm ventral from Bregma. Implants were secured by dental cement and protected with a cap (Model C317DCS, Plastics One).
Marble burying: Standard cages were filled with fresh bedding to a depth of 2.5 in and 15 marbles were evenly spaced across the bedding. Animals were placed in the cage for 30 min and allowed to ambulate freely. At the end of the assay, the number of marbles buried was estimated visually. A marble was considered buried if at least ¾ of its surface was covered by the bedding.
Intra-amygdala AVP injections: Prior to marble burying, adult WT and Avpr1a^−/− females were bilaterally injected with 1 ng of AVP or 0.9% saline via in-dwelling cannulas using a Hamilton syringe (Hamilton 7635-01) connected to an injector (Model C317IS, Plastics One).

`COc1ccc(S(=O)(=O)N2C(=O)[C@@](c3ccccc3OC)(N3C[C@H](O)C[C@H]3C(=O)N(C)C)c3cc(Cl)ccc32)c(OC)c1` [AVPR1B antagonist]: the “marble burying (15 min)” value in test [1] (female mice exposed to CSIS) and in test [1] (male mice exposed to CSIS) was “did not affect behavior in females or males” each time.

As to `C[N+]1([O-])CCN(C2=Nc3cc(Cl)ccc3Nc3ccccc32)CC1` [CNO, clozapine-N-oxide], in test [2], the “activation of AVPR1A^CeA neurons” value is “acutely activated AVPR1A^CeA neurons”.

As to `COc1ccc(S(=O)(=O)N2c3ccc(Cl)cc3[C@](O)(c3ccccc3Cl)[C@@H]2C(=O)N2CCC[C@H]2C(N)=O)cc1OC` [SR49059], the marble burying entry in test [1] (female WT mice exposed to >7 weeks CSIS starting at 5 or 8 weeks of age) and in test [1] (male WT mice exposed to >7 weeks CSIS starting at 5 or 8 weeks of age) was “had no effect” throughout. Moreover, the “food intake: blockade of the anorexigenic effects of AVP” value in test [3] (AVP (0.3 ng) injected in the amygdala, peripheral injection of antagonist (Manning compound; SR49059 2 mg/kg)) is recorded as “does not restore food intake”.

In the case of “AVP: AVP (vasopressin), the AVPR1A ligand, injected into the amygdala/CeA (CYFQNCPRG-NH2; disulfide 1-6; UniProt P01185 20-28, looked up)”, the anxiety-related behaviors entry in test [4] is given as “can induce anxiety-like behaviors in males; also recorded: increase anxiety-related behaviors in males; also recorded: elicited anxiety-related behaviors”. Besides, the “effect on food intake” value in test [3] (AVP 0.3 ng injected in the amygdala) is recorded as “anorexigenic effects”. In addition, the “marble burying / anxiety behavior” value in test [5] (global knockout Avpr1a-/- females) is recorded as “had no effect”; in test [5] (group housed WT females), “trigger anxiety behavior in WT females; also recorded: increased marble burying”.

As for “d(CH2)5Tyr(Me)-[Orn8]-vasotocin [OXR antagonist]”, the “marble burying (15 min)” value in test [1] (female mice exposed to CSIS) and in test [1] (male mice exposed to CSIS) was “did not affect behavior in females or males” throughout.
